Test results taken from ChEMBL document CHEMBL1201862, “PubChem BioAssay data set” (2004).
The source made the active and inactive calls.

Legend:
H4 = experiment: Luminescence Cell-Based Dose Response HTS to Identify Activators of 5'UTR Stem-Loop Driven Prion Protein mRNA Translation in H4 Neuroglioblastoma Cells. [Related pubchem assays: 1829 (Project Summary), 1814 (Primary HTS)]; assay type: functional; settings: Homo sapiens
[1] = Luminescence Cell-Based Dose Response HTS to Identify Activators of Luciferase Translation or Activity in H4 […] Cells. [Related pubchem assays: 1829 (Project Summary), 1814 (Primary HTS)]; assay type: functional
[2] = molecular target: Heat shock protein HSP 90-alpha (Homo sapiens, UniProt P07900); experiment: Luminescence-based dose response biochemical high throughput screening assay for inhibitors of the Heat Shock Protein 90 (HSP90). [Related pubchem assays: 1831 (Summary AID.), 1846 (Confirmation screen.), 1789 (Primary screen.)]
[3] = molecular target: RNA-editing ligase 1, mitochondrial (Trypanosoma brucei brucei, UniProt P86926); experiment: inhibition of trypanosome RNA editing ligase – biochemical, fluorescence, Trypanosoma brucei, dose response (AID 1117295); assay type: functional
Sequence of RNA-editing ligase 1, mitochondrial (P86926 whole entry): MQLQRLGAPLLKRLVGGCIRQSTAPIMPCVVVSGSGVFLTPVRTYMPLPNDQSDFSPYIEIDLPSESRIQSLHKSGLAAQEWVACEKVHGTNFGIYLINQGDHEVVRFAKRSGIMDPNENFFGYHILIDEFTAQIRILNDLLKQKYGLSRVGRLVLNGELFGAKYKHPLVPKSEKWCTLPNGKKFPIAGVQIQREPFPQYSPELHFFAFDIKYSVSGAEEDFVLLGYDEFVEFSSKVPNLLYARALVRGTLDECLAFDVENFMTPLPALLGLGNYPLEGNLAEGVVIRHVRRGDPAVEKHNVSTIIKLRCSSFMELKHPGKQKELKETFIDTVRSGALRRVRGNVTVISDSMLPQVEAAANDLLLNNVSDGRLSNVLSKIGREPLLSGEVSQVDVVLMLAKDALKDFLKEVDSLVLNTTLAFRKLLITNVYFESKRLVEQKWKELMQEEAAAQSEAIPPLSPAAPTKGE

Genome polyprotein = Genome polyprotein (dengue virus type 2, UniProt P29990); experiment: flavivirus cap methylation enzyme inhibition – biochemical, confirmation dose response, primary screen (AID 588689); assay type: functional
Sequence of Genome polyprotein (P29990 2492-3391 limits assumed): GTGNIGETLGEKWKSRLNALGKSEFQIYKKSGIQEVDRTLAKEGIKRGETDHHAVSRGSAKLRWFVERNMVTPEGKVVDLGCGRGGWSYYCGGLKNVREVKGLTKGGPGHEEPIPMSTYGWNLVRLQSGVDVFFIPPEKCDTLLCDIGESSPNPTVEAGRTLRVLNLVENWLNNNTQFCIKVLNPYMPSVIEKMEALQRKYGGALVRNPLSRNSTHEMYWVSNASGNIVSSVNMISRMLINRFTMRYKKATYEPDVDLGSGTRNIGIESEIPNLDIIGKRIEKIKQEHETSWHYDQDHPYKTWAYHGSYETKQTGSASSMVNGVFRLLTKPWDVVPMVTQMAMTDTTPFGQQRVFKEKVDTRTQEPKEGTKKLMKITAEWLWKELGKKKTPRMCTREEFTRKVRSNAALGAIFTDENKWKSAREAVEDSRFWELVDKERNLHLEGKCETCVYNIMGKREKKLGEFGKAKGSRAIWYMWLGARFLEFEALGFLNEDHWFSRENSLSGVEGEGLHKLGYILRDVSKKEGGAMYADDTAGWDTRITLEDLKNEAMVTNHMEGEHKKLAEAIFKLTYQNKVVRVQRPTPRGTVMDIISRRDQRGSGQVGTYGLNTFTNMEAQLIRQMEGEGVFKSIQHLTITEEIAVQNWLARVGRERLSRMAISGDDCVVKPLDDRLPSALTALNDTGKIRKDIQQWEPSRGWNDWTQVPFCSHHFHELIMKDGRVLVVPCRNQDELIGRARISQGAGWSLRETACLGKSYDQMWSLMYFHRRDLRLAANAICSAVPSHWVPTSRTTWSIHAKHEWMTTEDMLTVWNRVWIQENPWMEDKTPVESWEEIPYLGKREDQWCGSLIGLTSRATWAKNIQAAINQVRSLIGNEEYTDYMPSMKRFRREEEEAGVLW

[4] = molecular target: NAD-dependent protein deacylase sirtuin-5, mitochondrial (Homo sapiens, UniProt Q9NXA8); experiment: sirtuin-5 deacylation blockers, concentration series – biochemical, fluorescence imaging, cherry-pick, set 5, dose response (AID 720591);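 also: desuccinylation of succinyl peptide AMC substrate read as fluorescence after trypsin release; potency of inhibitors that lower fluorescence and may act on trypsin instead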
Sequence of NAD-dependent protein deacylase sirtuin-5, mitochondrial (Q9NXA8 whole entry): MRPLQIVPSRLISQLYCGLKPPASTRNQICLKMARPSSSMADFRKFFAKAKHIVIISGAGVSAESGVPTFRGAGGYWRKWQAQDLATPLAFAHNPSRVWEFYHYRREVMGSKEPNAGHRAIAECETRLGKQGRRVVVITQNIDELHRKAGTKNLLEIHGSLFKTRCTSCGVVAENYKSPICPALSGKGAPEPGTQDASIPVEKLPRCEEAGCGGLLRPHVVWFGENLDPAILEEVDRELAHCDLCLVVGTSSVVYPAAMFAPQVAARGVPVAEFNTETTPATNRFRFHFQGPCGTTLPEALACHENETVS

[5] = inhibitors acting on PAX2 in cells – cell-based, plate reader, dry powder samples, selectivity assay for PAX8 inhibitor project, dose response (AID 743048); assay type: functional;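 also: HEK293 cells carrying a WT1 promoter luciferase reporter driven by expressed Pax2; potency is for inhibition of Pax2 driven reporter signal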
[6] = toxicity toward immortalized ovarian surface epithelium – cell-based, plate reader, dry powder samples, cytotoxicity control for PAX8 inhibitor project, dose response (AID 743045); assay type: functional
[7] = OV-90 cell viability loss – plate reader, dry powder, SA8, PAX8 inhibitor project, dose response (AID 743149); assay type: functional, cell-based
[8] = COV362 cell viability loss – plate reader, dry powder, SA12, cytotoxicity control for PAX8 inhibitor project, dose response (AID 743144); assay type: functional, cell-based
[9] = general cell-killing toxicity readout – plate reader, dry powder samples, cytotoxicity control for PAX8 inhibitor project, dose response (AID 743021); assay type: functional, cell-based
[10] = IGROV1 cell killing – plate reader, dry powder samples, PAX8 inhibitor project, dose response (AID 743043); assay type: functional, cell-based; settings: IGROV-1
[11] = PAX8-dependent cell viability loss – plate reader, dry powder, dose response (AID 743049); assay type: functional, cell-based
[12] = PAX5 cellular inhibition readout – cell-based, plate reader, dry powder samples, selectivity assay for PAX8 inhibitor project, dose response (AID 743047); assay type: functional;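 also: HEK293 cells carrying a Pax5 driven CD19 promoter luciferase reporter; potency of inhibitors that lower reporter luminescence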
[13] = COV434 cell viability loss – plate reader, dry powder, SA7, cytotoxicity control for PAX8 inhibitor project, dose response (AID 743145); assay type: functional, cell-based
Paired box protein Pax-8 = Paired box protein Pax-8 (Homo sapiens, UniProt Q06710); experiment: PAX8 transcriptional activity inhibition in RMG-I – RMG-I cells, luciferase, cherry-pick, dose response (AID 687027); assay type: functional, cell-based;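 also: luciferase reporter driven by Pax8 target thyroperoxidase promoter measured by SteadyGlo luminescence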
Sequence of Paired box protein Pax-8 (Q06710 whole entry): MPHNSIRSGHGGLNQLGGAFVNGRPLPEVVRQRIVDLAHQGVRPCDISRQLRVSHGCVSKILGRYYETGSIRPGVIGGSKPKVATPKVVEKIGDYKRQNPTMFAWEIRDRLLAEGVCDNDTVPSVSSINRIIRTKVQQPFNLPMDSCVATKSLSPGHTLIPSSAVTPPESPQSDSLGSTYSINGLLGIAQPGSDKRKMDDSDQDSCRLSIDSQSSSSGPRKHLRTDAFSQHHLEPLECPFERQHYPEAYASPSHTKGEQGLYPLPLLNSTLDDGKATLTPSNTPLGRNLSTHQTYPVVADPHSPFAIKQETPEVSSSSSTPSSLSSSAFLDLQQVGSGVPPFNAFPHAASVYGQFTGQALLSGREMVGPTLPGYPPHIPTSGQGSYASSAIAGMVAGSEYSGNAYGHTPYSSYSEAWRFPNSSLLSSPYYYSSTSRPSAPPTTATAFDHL

[14] = OVCAR4 cell viability loss – plate reader, dry powder, SA11, cytotoxicity control for PAX8 inhibitor project, dose response (AID 743150); assay type: functional, cell-based; settings: OVCAR-4
Transthyretin = Transthyretin (Homo sapiens, UniProt P02766); experiment: Luminescence-based cell-based high throughput dose response assay to identify activators of Transthyretin (TTR) transcription.; assay type: functional
[15] = blockers of HIV-1 envelope-mediated cell-cell fusion – cherry-pick, dose response (AID 652057); assay type: functional, cell-based
[16] = HIV-1 AD8 envelope cell-cell fusion blockers – cherry-pick, dose response (AID 652062); assay type: functional, cell-based;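 also: luciferase signal from cell-cell fusion driven by HIV-1 clade B AD8 Env; potency is for inhibitors of fusion seen as a drop in luminescence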
[17] = off-target signal loss in HeLa-CEM21 co-culture – HeLa F-luc CTL cells, cherry-picked, counter-screen for HIV-1 Env fusion inhibitor project, dose response (AID 652040); assay type: functional, cell-based;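 also: potency for signal decrease marking cytotoxic or nonspecific inhibition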
[18] = alpha-synuclein stem-loop luciferase translation blockers – H4 neuroglioma cells, luminescence, confirmation (AID 1988); assay type: functional, cell-based
[19] = Luminescence Cell-Based Dose Response HTS to Identify Inhibitors of 5'UTR Stem-Loop Driven Prion Protein mRNA Translation in H4 Neuroglioblastoma Cells. [Related pubchem assays: 1827 (Project Summary), 1813 (Primary HTS)]; assay type: functional
[20] = HIV-1 Vif–A3G interaction blockers – biochemical, TR-FRET, GST-Vif 1-94, biotin-A3G peptide, dose response retest, primary screen (AID 1117319); assay type: functional;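 also: TR-FRET signal of purified GST-Vif binding a biotinylated A3G peptide; inhibitors lower the FRET signal by blocking Vif and A3G binding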
[21] = luciferase reporter signal suppression in cells – H4 neuroglioma cells, luminescence, dose response (AID 1990); assay type: functional, cell-based

CCc1ccc(OCc2ccc(C(=O)OC)o2)cc1
active: EC50 (H4) 2.81 µM | EC50 [1] 16.4 µM | IC50 [2] 0.551 µM

O=C(CCN1C(=O)S/C(=C/c2ccccc2)C1=O)Nc1ccc(O)c(C(=O)O)c1
active: IC50 (Genome polyprotein) 91.6 µM
inactive: IC50 [3] > 96.6 µM

Nc1nc(CSc2ccc(Cl)cc2)nc(N2CCCCC2)n1
active: AC50 [4] 26.5 µM

O=C(Nc1cccc(F)c1)N1CCCCN2[C@H](CO)[C@@H](c3ccc(C#Cc4ccccc4)cc3)[C@H]2C1
active: AC50 [5] 20.8 µM | AC50 [6] 21.2 µM | AC50 [7] 12.6 µM | AC50 [8] 17 µM | AC50 [9] 24.4 µM | AC50 [10] 16 µM | AC50 [11] 15.5 µM | AC50 [12] 21 µM | AC50 [13] 11.6 µM | AC50 (Paired box protein Pax-8) 15.4 µM | AC50 [14] 31.1 µM

Cn1nccc1C(=O)N1CCc2ccccc21
inactive: EC50 (Transthyretin) > 167 µM

Cn1c(-c2ccc(Cl)cc2)ccc(C#N)c1=O
active: AC50 [15] 2.46 µM | AC50 [16] 68.9 µM | AC50 [17] 2.62 µM | IC50 [20] > 100 µM | EC50 [21] 8.33 µM
> 120 µM (not active): EC50 [18] | EC50 [19]
